What follows are molecules tested against T1, calstabin2 (FKBP12.6) binding to PKA-phosphorylated cardiac sarcoplasmic reticulum (CSR) (Homo sapiens, UniProt Q92736) (assay: Calstabin 2 (FKBP12.6) Assay). Conditions: 250 nM calstabin2, approximately 20 μg PKA-phosphorylated CSR, room temperature 30 minutes, immunoblot detection of calstabin2 binding.
T1 construct: from tissue
Description: PKA-phosphorylated cardiac sarcoplasmic reticulum (CSR) (approximately 20 μg) is incubated with 250 nM calstabin2 (FKBP12.6) in 100 μl binding buffer (10 mM imidazole, 300 mM sucrose, pH 7.4) with a known concentration of the test compound. Calstabin2 is added as the last reagent in the reaction mixture. The binding is performed at room temperature for 30 minutes. After the binding reaction, the mixture is centrifuged for 10 minutes at 100,000 xg. The resulting pellet is washed 4 times in binding buffer. After each wash, the tubes are centrifuged at 100,000 xg for 10 minutes. After the final wash, the supernatant is aspirated off 20 μl of 2×SDS-PAGE loading buffer is added to each pellet, and the pellet is resuspended. The mixture is heated to 90° C. for 4 minutes, and the proteins are analysed by 15% SDS-PAGE. Calstabin2 binding was detected with an αFKBP (1:2000) primary antibody and an IR-labeled anti-rabbit IgG from LiCor Biosciences as the secondary antibody. The blot was developed with a LiCor Odyssey system.

T1 sequence (Q92736 whole entry): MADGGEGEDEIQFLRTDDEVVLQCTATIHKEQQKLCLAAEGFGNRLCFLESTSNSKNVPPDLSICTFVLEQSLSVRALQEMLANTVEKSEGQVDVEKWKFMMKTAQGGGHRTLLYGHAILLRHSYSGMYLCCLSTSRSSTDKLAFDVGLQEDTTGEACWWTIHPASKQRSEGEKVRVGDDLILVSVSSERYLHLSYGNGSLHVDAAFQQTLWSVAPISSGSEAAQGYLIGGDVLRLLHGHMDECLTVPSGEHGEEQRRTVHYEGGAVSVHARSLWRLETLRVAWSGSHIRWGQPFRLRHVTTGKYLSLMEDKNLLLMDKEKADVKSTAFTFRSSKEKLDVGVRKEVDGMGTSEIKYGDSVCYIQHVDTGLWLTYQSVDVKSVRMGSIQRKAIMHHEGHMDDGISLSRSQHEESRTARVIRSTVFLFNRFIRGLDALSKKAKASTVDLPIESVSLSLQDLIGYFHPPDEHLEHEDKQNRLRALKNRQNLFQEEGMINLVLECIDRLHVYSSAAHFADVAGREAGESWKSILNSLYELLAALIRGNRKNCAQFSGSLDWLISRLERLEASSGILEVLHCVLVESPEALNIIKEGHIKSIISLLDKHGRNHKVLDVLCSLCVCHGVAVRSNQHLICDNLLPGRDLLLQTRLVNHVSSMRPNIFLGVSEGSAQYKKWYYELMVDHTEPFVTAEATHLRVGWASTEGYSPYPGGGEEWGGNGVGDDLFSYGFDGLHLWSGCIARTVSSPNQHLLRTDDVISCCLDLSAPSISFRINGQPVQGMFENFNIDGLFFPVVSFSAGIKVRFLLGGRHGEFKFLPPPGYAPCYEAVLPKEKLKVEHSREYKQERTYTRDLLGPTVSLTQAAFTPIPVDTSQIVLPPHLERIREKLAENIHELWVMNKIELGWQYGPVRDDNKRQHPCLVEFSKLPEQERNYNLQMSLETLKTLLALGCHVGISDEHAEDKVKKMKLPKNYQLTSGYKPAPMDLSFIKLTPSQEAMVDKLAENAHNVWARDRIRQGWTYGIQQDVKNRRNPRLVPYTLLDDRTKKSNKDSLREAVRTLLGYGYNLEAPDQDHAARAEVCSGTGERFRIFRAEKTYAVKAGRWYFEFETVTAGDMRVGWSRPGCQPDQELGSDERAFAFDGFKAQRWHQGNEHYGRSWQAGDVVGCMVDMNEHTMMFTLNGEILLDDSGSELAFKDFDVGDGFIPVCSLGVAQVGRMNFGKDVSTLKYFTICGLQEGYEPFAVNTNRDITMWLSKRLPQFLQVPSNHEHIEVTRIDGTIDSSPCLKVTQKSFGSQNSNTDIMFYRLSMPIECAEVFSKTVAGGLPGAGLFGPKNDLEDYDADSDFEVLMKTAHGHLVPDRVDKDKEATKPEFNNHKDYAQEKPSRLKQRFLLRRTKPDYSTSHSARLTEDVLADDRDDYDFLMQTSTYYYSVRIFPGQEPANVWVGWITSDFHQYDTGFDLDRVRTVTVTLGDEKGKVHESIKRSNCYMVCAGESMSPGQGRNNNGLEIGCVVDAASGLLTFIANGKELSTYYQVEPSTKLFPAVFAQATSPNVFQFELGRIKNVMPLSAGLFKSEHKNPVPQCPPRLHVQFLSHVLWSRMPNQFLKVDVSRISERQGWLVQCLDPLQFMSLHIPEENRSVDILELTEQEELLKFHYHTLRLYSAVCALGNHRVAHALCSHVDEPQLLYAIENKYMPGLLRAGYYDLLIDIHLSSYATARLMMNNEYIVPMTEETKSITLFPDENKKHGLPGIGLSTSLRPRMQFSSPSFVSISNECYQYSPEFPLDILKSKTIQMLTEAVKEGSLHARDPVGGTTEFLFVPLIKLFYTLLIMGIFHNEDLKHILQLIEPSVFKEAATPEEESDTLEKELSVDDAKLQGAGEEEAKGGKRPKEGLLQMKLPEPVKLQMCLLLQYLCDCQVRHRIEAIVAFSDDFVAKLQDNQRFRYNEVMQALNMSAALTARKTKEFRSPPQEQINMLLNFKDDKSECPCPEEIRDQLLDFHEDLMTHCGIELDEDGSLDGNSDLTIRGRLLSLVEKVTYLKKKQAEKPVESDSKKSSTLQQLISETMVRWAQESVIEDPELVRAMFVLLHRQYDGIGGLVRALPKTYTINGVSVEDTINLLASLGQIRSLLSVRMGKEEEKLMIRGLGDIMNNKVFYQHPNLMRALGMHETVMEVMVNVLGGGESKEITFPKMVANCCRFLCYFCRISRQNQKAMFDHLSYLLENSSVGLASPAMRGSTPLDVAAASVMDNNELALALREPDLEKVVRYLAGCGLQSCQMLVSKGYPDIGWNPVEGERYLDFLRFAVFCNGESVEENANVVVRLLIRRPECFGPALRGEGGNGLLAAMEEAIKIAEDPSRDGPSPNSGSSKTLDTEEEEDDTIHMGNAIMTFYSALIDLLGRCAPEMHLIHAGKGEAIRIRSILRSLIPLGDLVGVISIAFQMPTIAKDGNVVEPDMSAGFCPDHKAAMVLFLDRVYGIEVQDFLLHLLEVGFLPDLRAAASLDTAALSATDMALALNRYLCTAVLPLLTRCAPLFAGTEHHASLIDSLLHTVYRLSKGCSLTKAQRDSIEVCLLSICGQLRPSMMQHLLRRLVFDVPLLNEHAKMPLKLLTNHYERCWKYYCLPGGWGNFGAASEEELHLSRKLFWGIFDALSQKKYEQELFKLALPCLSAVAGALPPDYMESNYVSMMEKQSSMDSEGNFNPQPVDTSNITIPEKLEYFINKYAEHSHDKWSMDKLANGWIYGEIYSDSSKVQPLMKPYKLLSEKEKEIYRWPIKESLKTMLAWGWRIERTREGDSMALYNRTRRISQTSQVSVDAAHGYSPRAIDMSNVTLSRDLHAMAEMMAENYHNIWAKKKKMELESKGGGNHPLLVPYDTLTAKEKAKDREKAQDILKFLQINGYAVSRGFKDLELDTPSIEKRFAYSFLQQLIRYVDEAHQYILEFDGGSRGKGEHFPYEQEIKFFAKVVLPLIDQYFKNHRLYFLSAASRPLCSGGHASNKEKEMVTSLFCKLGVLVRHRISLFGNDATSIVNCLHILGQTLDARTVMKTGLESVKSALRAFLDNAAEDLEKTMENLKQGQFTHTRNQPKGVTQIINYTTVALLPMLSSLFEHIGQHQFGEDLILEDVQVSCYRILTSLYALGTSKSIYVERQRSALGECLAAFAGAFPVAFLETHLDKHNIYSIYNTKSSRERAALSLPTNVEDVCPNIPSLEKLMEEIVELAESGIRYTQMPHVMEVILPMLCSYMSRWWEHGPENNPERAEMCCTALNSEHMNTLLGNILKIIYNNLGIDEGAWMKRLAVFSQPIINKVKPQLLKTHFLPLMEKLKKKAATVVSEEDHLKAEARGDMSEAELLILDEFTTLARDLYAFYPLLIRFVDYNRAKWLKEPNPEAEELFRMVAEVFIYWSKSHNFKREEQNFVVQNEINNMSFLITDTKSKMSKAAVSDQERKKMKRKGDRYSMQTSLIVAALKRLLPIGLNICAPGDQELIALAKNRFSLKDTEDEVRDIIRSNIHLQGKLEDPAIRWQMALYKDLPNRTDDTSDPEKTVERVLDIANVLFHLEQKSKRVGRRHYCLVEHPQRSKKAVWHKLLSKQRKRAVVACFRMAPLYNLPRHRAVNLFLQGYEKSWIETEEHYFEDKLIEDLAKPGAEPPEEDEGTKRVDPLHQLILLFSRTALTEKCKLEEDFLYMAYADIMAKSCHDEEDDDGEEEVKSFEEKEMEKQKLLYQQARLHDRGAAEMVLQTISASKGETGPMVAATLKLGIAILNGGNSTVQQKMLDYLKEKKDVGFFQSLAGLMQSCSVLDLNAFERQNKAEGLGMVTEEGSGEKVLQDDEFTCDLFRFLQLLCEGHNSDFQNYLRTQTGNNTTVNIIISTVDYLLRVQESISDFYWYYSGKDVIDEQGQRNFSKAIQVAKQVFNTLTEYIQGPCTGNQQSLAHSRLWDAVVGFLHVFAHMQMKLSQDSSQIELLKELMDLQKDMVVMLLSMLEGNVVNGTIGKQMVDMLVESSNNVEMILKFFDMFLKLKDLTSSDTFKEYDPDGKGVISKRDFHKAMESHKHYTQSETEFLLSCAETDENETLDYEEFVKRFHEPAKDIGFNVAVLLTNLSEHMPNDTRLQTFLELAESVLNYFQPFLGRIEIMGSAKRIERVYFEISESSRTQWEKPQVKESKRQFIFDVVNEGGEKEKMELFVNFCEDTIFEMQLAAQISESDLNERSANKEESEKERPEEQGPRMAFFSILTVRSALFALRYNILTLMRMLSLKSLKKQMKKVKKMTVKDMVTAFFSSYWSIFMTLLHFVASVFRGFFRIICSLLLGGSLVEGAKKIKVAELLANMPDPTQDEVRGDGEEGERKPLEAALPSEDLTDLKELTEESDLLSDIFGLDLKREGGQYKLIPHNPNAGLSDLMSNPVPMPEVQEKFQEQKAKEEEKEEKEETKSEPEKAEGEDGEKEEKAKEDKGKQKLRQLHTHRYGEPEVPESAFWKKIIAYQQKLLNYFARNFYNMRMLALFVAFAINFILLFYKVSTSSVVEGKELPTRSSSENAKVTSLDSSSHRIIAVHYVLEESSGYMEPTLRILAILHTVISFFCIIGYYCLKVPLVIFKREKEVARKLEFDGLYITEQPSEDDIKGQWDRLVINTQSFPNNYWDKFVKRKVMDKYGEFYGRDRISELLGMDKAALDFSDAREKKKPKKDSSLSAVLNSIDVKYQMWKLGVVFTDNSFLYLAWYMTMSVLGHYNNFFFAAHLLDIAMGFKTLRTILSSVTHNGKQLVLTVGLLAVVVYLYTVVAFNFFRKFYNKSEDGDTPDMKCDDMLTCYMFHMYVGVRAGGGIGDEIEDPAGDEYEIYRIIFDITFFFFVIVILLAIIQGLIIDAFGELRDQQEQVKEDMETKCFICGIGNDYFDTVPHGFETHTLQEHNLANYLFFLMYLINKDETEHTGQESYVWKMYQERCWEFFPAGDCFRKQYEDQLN
T1 sequence (P68106 whole entry partner): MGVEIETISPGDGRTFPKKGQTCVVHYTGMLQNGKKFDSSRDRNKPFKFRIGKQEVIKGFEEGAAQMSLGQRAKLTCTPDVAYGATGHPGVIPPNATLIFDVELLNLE

Binding | Structure (SMILES)
1000 nM | COc1ccc2c(c1)C/C(=C\CCN1CCC(Cc3ccccc3)CC1)CCS2
100 nM | COc1ccc2c(c1)CN(C(=O)CCN1CCC(Cc3ccccc3)CC1)C(C)CS2 (stereo not drawn)
100 nM | COc1ccc2c(c1)CN(C(=O)CCN1CCC(Cc3ccccc3)CC1)C[C@H](C)O2
100 nM | COc1ccc2c(c1)CN(C(=O)CCN1CCC(Cc3ccccc3)CC1)C[C@@H](C)O2
100 nM | COc1ccc2c(c1)C/C(=C/CCN1CCC(Cc3ccccc3)CC1)CCS2
1000 nM | COc1ccc2c(c1)CN(C(=O)CCN1CCC(Cc3ccccc3)CC1)[C@H](C)[C@H](C)S2
100 nM | COc1ccc2c(c1)CN(C(=O)CCN1CCC(Cc3ccccc3)CC1)[C@@H](C)[C@@H](C)S2
1000 nM | COc1cccc(OC)c1CN(C)C(=O)CCN1CCC(Cc2ccccc2)CC1
100 nM | COc1ccc2c(c1)CN(C(=O)CCN1CCC(Cc3ccccc3)CC1)C[C@@H](C)S2

Reference: US20110263569A1, “RYANODINE CHANNEL BINDERS AND USES THEREOF” (President and Fellows of Harvard College, priority 2007, published 2011)
